Here are results for 20 molecules from ChEMBL document CHEMBL1153159, “Oxime derivatives related to AP18: Agonists and antagonists of the TRPA1 receptor” (Bioorg Med Chem Lett, 2010).

Each structure is given as a SMILES string.

As usually defined, the EC50 is the concentration that produces a half-maximal response. As a reminder, the KB is the affinity of an antagonist, worked out from how it opposes an agonist. Usually IC50 stands for the concentration that inhibits the measured activity by half.

Common to all, as to assay type: functional, cell-based
For test [1], the target named is T1, Transient receptor potential cation channel subfamily A member 1 (Homo sapiens, UniProt O75762). Kind of test: Agonist activity at human TRPA1 expressed in HEK293 cells assessed as [45]Ca2+ influx by microbeta plate count relative to cinnamaldehyde.
Test [2] deals with T1, Transient receptor potential cation channel subfamily A member 1. Kind of test: Agonist activity at human TRPA1 expressed in HEK293 cells assessed as [45]Ca2+ influx by microbeta plate count.
The target is the same in test [3]. Kind of test: Antagonist activity at human TRPA1 expressed in HEK293 cells assessed as inhibition of cinnamaldehyde-induced [45]Ca2+ influx by microbeta plate count.
The target is the same in test [4]. Nature of the test: Antagonist activity at human TRPA1 expressed in HEK293 cells assessed as [45]Ca2+ influx by microbeta plate count.

T1 sequence (O75762 whole entry): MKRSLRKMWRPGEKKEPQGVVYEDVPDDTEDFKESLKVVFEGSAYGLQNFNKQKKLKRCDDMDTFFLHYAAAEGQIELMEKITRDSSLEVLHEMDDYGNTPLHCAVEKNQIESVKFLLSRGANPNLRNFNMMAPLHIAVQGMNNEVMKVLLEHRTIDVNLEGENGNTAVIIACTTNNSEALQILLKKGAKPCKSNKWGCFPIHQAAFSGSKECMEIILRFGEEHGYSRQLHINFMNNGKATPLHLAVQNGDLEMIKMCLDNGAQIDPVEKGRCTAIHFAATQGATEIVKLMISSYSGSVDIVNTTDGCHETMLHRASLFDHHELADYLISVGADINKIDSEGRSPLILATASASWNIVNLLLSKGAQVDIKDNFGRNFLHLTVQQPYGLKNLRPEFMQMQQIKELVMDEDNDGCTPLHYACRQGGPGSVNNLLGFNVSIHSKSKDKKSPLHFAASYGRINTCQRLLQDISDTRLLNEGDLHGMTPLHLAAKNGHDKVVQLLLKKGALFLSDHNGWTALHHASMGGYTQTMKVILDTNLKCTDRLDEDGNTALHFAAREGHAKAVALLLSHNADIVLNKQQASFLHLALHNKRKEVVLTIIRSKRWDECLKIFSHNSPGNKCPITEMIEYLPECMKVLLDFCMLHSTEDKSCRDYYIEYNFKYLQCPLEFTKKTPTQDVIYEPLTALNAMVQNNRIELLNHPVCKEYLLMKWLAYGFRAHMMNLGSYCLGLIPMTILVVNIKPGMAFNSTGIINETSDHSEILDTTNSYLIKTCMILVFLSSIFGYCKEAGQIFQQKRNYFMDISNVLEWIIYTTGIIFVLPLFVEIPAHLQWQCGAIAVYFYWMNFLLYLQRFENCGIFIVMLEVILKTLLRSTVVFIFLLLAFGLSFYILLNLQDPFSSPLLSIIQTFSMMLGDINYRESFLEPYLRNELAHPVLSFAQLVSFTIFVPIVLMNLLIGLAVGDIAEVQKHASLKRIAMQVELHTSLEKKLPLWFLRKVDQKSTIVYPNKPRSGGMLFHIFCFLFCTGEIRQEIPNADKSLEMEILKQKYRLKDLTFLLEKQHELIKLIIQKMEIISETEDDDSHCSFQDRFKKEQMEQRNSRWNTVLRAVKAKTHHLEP

In the case of `O/N=C/C=C/c1ccccc1`, in test [1], the Efficacy was 0.

In the case of `NC(/C=C/c1cc(C(F)(F)F)cc(C(F)(F)F)c1)=N\O`, the Efficacy in test [1] is less than 0.1.

Take `CC(=C\c1cccc([N+](=O)[O-])c1)/C(C)=N/O`: in test [1], the Efficacy was 0.

For `CC(/C=C/c1ccc2c(c1)OCO2)=N\O`, in test [2], the EC50 was 11.5 µM. The Efficacy in test [1] is 0.54.

Turning to `O/N=C/C=C/c1ccc(C(F)(F)F)cc1`, the Efficacy in test [1] is 0.13.

`CC(=C\c1cccc(C)c1)/C(C)=N/O`: the EC50 in test [2] came to 14.4 µM. Besides, the Efficacy in test [1] was determined as 0.84.

With `CC(/C=C/c1ccccc1)=N\O`, the concentration for a half-maximal effect (EC50) in test [2] was determined as 96.6 µM. Also, the Efficacy in test [1] turned out to be 0.27.

Regarding `COc1ccc(/C=C(C)/C(C)=N/O)cc1`, the EC50 in test [2] came out at 46.1 µM. For the same molecule, in test [1], the Efficacy is 0.23.

`CN(C)c1ccc(/C=C/C=N/O)cc1`: the EC50 in test [2] turned out to be 15.9 µM. Besides, the Efficacy in test [1] is 0.87.

As for `CC(=C\c1ccccc1Cl)/C(C)=N/O`, the Efficacy in test [1] is 0.

With `O/N=C/C=C/c1ccc(Cl)cc1`, the Efficacy in test [1] came out at 0.46.

Turning to `CC(=C\c1ccccc1)/C(C)=N/O`, the KB in test [3] came to 1.91 µM. Also, the IC50 in test [4] was 2.7 µM. Further, the Efficacy in test [1] is 0.

In the case of `CC(/C=C/c1cccc(Cl)c1)=N\O`, the concentration giving a half-maximal response (EC50) in test [2] was 63.1 µM. Also, the Efficacy in test [1] is 0.85.

For the molecule `CC(/C=C/c1cccc(Cl)c1)=N/O`, the Efficacy in test [1] worked out at 0.21.

As to `CC(/C=N/O)=C\c1ccccc1`, the concentration giving a half-maximal response (EC50) in test [2] came to 69.4 µM. Further, the Efficacy in test [1] was determined as 0.18.

Take `CC(/C=N/O)=C\c1ccc(C(C)(C)C)cc1`: in test [1], the Efficacy came out at 0.15.

Consider `O=C/C=C/c1ccccc1` [CINNAMALDEHYDE], for which the concentration for a half-maximal effect (EC50) in test [2] was 51.4 µM.

As for `O/N=C\C=C\c1ccc(Cl)cc1`, the EC50 in test [2] is 9.4 µM. In addition, the Efficacy in test [1] worked out at 0.85.

Take `CC(/C=C/c1ccc(Cl)cc1)=N\O`: the half-maximal effective concentration (EC50) in test [2] was found to be 27.6 µM. The Efficacy in test [1] was determined as 0.66.

For `CC(=C\c1ccc(Cl)cc1)/C(C)=N/O` [AP18 5], the KB in test [3] turned out to be 1.26 µM. For the same molecule, the half-maximal inhibitory concentration (IC50) in test [4] was found to be 2.8 µM. Also, the Efficacy in test [1] turned out to be 0.
